{
  "source": "patent US8530504B2",
  "about": "“Pyrazolothiazole compound” (Eisai R&D Management Co., Ltd., priority 2009, dated 2013)",
  "origin": "cited, not measured here",
  "key": {"[1]": {"settings": "in vivo; cited from earlier work"}, "IBS patients": {"system": "IBS patients", "settings": "cited from earlier work"}, "ethanol withdrawal rats": {"system": "ethanol withdrawal rats", "settings": "cited from earlier work"}, "[2]": {"settings": "in vivo; cited from earlier work", "remark": "listed apart in the source"}, "[3]": {"settings": "in vivo; cited from earlier work", "remark": "listed apart in the source"}, "rats [4]": {"system": "rats", "settings": "cited from earlier work"}, "rats [5]": {"system": "rats", "settings": "cited from earlier work", "remark": "listed apart in the source"}, "[6]": {"settings": "in vivo; cited from earlier work", "remark": "listed apart in the source"}, "[7]": {"settings": "in vivo; cited from earlier work", "remark": "listed apart in the source"}, "[8]": {"settings": "pretreatment; cited from earlier work"}, "rats [9]": {"system": "rats", "settings": "cited from earlier work", "remark": "listed apart in the source"}, "[10]": {"settings": "Journal of Psychiatric Research, 34:171-181 (2000); cited from earlier work"}, "high-anxiety rats": {"system": "high-anxiety rats", "settings": "particularly in high-anxiety rats; cited from earlier work"}, "rats [11]": {"system": "rats", "settings": "cited from earlier work", "remark": "listed apart in the source"}},
  "data": [
    {"molecule": "α-helical CRF (9-41)", "values": [
      {"measurement": "ischemic and excitotoxic encephalopathy", "setting": "[1]", "value": "inhibits ischemic and excitotoxic encephalopathy"},
      {"measurement": "colon intestinal hyperkinesis, abdominal pain and anxiety", "setting": "IBS patients", "value": "inhibits colon intestinal hyperkinesis in IBS patients and reduces abdominal pain and anxiety"},
      {"measurement": "anxiety behavior", "setting": "ethanol withdrawal rats", "value": "inhibits anxiety behavior"},
      {"measurement": "stress-related reduction in food intake", "setting": "[2]", "value": "inhibit stress-related reduction in food intake"},
      {"measurement": "stress-related increase in intracerebral amyloid-β", "setting": "[3]", "value": "suppresses stress-related increase in intracerebral amyloid-β"}
    ]},
    {"molecule": "CCCCN(CC)c1nc(C)nc2c1c(C)cn2-c1c(C)cc(C)cc1C", "note": "[CP-154526]", "values": [
      {"measurement": "recurrence of stress-elicited alcohol-seeking behavior", "setting": "rats [4]", "value": "inhibits recurrence of stress-elicited alcohol-seeking behavior"},
      {"measurement": "recurrence of stress-elicited drug (heroin, cocaine)-seeking behavior", "setting": "rats [5]", "value": "inhibits recurrence of stress-elicited drug (heroin, cocaine)-seeking behavior"},
      {"measurement": "gastric emptying retardation after surgery", "setting": "[6]", "value": "recovers gastric emptying retardation after surgery"},
      {"measurement": "learning disability following acute stress", "setting": "[7]", "value": "inhibits learning disability following acute stress"},
      {"measurement": "naltrexone-induced morphine withdrawal symptoms", "setting": "[8]", "value": "inhibits naltrexone-induced morphine withdrawal symptoms"},
      {"measurement": "anti-depressant and anti-anxiety actions", "setting": "rats [9]", "value": "exhibits anti-depressant and anti-anxiety actions"}
    ]},
    {"molecule": "CCCN(CCC)c1cc(C)nc2c(-c3cnc(N(C)C)cc3C)c(C)nn12", "note": "[Example R121919]", "values": [
      {"measurement": "ameliorating depression, depressive symptoms, anxiety", "setting": "[10]", "value": "effective for ameliorating depression, depressive symptoms, anxiety"},
      {"measurement": "stress-related sleep disorder", "setting": "high-anxiety rats", "value": "inhibits stress-related sleep disorder"},
      {"measurement": "anti-anxiety action", "setting": "rats [11]", "value": "exhibits an anti-anxiety action"}
    ]}
  ]
}
